Columns and labels:
[1] = DRUGMATRIX: Calcium Channel Type L, Dihydropyridine radioligand binding (ligand: [3H] Nitrendipine); assay type: cell membranes, Rattus norvegicus, Wistar, Cerebral cortex, Membrane; conditions: Not Active = under 50% inhibition at 10 µM
[2] = target: T1, Nitric oxide synthase, inducible (Mus musculus, UniProt P29477); parameters: species or system Escherichia coli;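 also: inhibition of iNOS enzyme activity measured with L-arginine as substrate; in other assays of this panel Not Active means under 50% inhibition at 10 µM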
T1 sequence (P29477 whole entry): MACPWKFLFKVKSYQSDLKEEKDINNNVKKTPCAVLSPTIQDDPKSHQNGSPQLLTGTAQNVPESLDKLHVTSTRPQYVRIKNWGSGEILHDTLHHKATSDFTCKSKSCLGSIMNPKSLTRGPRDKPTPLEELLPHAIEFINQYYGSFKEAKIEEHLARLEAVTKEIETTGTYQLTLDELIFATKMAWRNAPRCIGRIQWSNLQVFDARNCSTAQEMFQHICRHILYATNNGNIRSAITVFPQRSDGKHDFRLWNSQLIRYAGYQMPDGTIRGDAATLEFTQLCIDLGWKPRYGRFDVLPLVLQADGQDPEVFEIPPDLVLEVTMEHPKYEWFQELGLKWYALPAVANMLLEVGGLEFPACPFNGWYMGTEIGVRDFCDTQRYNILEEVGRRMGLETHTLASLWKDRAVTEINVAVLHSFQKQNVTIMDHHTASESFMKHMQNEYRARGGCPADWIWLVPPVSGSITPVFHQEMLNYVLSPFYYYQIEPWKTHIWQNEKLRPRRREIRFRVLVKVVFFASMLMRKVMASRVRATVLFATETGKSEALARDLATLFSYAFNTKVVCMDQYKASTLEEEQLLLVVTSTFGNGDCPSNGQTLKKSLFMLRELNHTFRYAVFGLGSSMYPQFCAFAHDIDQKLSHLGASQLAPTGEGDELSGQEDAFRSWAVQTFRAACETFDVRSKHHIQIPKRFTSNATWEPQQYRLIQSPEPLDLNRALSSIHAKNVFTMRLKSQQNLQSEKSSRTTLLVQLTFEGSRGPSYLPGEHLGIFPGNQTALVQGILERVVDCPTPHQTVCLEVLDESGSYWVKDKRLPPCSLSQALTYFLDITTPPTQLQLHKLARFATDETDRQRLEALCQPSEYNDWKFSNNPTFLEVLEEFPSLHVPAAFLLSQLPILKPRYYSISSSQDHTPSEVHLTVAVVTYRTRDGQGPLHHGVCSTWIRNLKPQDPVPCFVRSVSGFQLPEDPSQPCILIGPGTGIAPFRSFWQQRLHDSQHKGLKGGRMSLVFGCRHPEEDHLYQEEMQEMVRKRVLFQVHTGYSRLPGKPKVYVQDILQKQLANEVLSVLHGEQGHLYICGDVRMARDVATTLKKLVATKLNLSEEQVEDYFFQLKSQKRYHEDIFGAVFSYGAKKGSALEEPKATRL

[3] = target: Sigma non-opioid intracellular receptor 1 (Homo sapiens, UniProt Q99720); experiment: DRUGMATRIX: Sigma1 radioligand binding (ligand: [3H] Haloperidol); assay type: cell membranes, Jurkat, Membrane; conditions: Not Active = under 50% inhibition at 10 µM
Sequence of Sigma non-opioid intracellular receptor 1 (Q99720 whole entry): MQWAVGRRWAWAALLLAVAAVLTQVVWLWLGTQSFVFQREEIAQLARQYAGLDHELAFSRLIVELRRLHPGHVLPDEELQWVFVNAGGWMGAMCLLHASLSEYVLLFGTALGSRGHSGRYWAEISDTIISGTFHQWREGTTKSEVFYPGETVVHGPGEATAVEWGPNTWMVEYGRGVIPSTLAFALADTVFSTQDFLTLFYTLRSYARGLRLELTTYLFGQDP

[4] = target: C-C chemokine receptor type 5 (Homo sapiens, UniProt P51681); assay type: cell membranes, Membrane; conditions: hek293; also: in other assays of this panel Not Active means under 50% inhibition at 10 µM
Sequence of C-C chemokine receptor type 5 (P51681 whole entry): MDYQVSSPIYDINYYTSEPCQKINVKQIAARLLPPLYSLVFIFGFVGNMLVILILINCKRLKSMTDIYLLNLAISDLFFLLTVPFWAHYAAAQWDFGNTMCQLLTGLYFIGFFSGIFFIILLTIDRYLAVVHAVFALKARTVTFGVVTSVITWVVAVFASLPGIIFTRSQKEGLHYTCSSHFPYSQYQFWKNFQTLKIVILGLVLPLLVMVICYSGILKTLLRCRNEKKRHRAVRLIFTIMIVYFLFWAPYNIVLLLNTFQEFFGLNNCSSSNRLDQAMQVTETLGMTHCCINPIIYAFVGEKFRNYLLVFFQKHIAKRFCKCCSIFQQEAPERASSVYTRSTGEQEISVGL

[5] = target: T2, Neutrophil elastase (Homo sapiens, UniProt P08246); assay type: tissue-based;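 also: inhibition of neutrophil elastase enzyme activity, measured with a p-nitroanilide-linked peptide substrate; in other assays of this panel Not Active means under 50% inhibition at 10 µM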
T2 sequence (P08246 whole entry): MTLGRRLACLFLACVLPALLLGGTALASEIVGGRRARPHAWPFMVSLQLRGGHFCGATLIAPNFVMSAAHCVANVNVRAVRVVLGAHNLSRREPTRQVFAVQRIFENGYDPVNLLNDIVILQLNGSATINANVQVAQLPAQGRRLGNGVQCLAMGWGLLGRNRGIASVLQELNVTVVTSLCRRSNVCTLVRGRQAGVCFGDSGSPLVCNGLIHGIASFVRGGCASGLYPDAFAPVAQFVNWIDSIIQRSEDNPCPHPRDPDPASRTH

[6] = target: T3, C-X-C chemokine receptor type 2 (Homo sapiens, UniProt P25025); assay type: cell membranes, Membrane; conditions: cho-k1; also: in other assays of this panel Not Active means under 50% inhibition at 10 µM
T3 sequence (P25025 whole entry): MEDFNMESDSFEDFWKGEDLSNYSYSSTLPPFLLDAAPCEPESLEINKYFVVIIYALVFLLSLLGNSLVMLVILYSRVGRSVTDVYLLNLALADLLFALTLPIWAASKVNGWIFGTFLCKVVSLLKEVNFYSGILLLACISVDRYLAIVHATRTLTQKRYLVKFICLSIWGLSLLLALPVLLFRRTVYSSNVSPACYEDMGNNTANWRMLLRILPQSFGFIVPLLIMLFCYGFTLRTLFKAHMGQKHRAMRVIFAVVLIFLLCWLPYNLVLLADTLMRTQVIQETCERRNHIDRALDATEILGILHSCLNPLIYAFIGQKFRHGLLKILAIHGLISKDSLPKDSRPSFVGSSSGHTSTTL

[7] = target: T4, Neuropeptide Y receptor type 2 (Homo sapiens, UniProt P49146); assay type: cell membranes, Membrane; conditions: kan-ts; also: in other assays of this panel Not Active means under 50% inhibition at 10 µM
T4 sequence (P49146 whole entry): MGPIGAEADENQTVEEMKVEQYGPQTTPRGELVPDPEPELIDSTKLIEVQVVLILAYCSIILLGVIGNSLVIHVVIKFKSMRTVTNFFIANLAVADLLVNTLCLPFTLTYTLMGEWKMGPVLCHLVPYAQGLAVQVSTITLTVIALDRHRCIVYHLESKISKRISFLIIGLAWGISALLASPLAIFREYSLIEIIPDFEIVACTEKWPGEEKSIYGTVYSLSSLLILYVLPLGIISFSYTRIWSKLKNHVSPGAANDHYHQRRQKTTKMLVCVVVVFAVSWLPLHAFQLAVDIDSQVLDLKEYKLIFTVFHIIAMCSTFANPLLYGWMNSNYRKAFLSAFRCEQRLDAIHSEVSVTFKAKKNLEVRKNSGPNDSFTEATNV

CN1CCCC(CN2c3ccccc3Sc3ccccc32)C1 (centres undefined) [MEPAZINE]
IC50 [1]: Not Active
Ki [1]: Not Active
IC50 [2]: Not Active
IC50 ([3]; read-out: IC50): 0.18 µM
Ki ([3]; read-out: Ki): 0.076 µM
IC50 [4]: Not Active
IC50 [5]: Not Active
IC50 [6]: Not Active
IC50 [7]: Not Active

Cc1cccc(C)c1NC(=O)C1CCCCN1C (centres undefined) [MEPIVACAINE]
IC50 [1]: Not Active
Ki [1]: Not Active
IC50 [2]: Not Active
IC50 ([3]; jurkat): Not Active
IC50 [4]: Not Active
IC50 [5]: Not Active
IC50 [6]: Not Active
IC50 [7]: Not Active

CN(C)C(=N)NC(=N)N [METFORMIN]
IC50 [1]: Not Active
Ki [1]: Not Active
IC50 [2]: Not Active
IC50 ([3]; jurkat): Not Active
IC50 [4]: Not Active
IC50 [5]: Not Active
IC50 [6]: Not Active
IC50 [7]: Not Active

CC(C)(C)NCC(O)COc1cccc2c1CC(O)C(O)C2 (centres undefined) [NADOLOL]
IC50 [1]: Not Active
Ki [1]: Not Active
IC50 [2]: Not Active
IC50 ([3]; jurkat): Not Active
IC50 [4]: Not Active
IC50 [5]: Not Active
IC50 [6]: Not Active
IC50 [7]: Not Active

C[C@]12CC[C@H]3[C@@H](CCC4=CC(=O)CC[C@@H]43)[C@@H]1CC[C@@H]2O [NANDROLONE]
IC50 [1]: Not Active
Ki [1]: Not Active
IC50 [2]: Not Active
IC50 ([3]; jurkat): Not Active
IC50 [4]: Not Active
IC50 [5]: Not Active
IC50 [6]: Not Active
IC50 [7]: Not Active

C[C@@H]1C/C=C/C=C/C=C/C=C/[C@H](O[C@@H]2O[C@H](C)[C@@H](O)[C@H](N)[C@@H]2O)C[C@@H]2O[C@](O)(C[C@@H](O)C[C@H]3O[C@@H]3/C=C/C(=O)O1)C[C@H](O)[C@H]2C(=O)O [NATAMYCIN]
IC50 [1]: Not Active
Ki [1]: Not Active
IC50 [2]: Not Active
IC50 ([3]; jurkat): Not Active
IC50 [4]: Not Active
IC50 [5]: Not Active
IC50 [6]: Not Active
IC50 [7]: Not Active

CN(C)C(=O)Oc1cccc([N+](C)(C)C)c1.[Br-] [NEOSTIGMINE BROMIDE]
IC50 [1]: Not Active
Ki [1]: Not Active
IC50 [2]: Not Active
IC50 ([3]; jurkat): Not Active
IC50 [4]: Not Active
IC50 [5]: Not Active
IC50 [6]: Not Active
IC50 [7]: Not Active

NC(=O)c1cccnc1 [NIACINAMIDE]
IC50 [1]: Not Active
Ki [1]: Not Active
IC50 [2]: Not Active
IC50 ([3]; jurkat): Not Active
IC50 [4]: Not Active
IC50 [5]: Not Active
IC50 [6]: Not Active
IC50 [7]: Not Active

CS(=O)(=O)Nc1ccc([N+](=O)[O-])cc1Oc1ccccc1 [NIMESULIDE]
IC50 [1]: Not Active
Ki [1]: Not Active
IC50 [2]: Not Active
IC50 ([3]; jurkat): Not Active
IC50 [4]: Not Active
IC50 [5]: Not Active
IC50 [6]: Not Active
IC50 [7]: Not Active

CN1C(=O)CN=C(c2ccccc2)c2cc([N+](=O)[O-])ccc21 [NIMETAZEPAM]
IC50 [1]: Not Active
Ki [1]: Not Active
IC50 [2]: Not Active
IC50 ([3]; jurkat): Not Active
IC50 [4]: Not Active
IC50 [5]: Not Active
IC50 [6]: Not Active
IC50 [7]: Not Active

COc1ccc2c(c1OC)C(=O)O[C@@H]2[C@H]1c2c(cc3c(c2OC)OCO3)CCN1C [NOSCAPINE]
IC50 [1]: Not Active
Ki [1]: Not Active
IC50 [2]: Not Active
IC50 ([3]; jurkat): Not Active
IC50 [4]: Not Active
IC50 [5]: Not Active
IC50 [6]: Not Active
IC50 [7]: Not Active

C[C@@H]1O[C@@H](O[C@H]2C[C@@H](O)[C@]3(CO)[C@H]4[C@H](O)C[C@]5(C)[C@@H](C6=CC(=O)OC6)CC[C@]5(O)[C@@H]4CC[C@]3(O)C2)[C@H](O)[C@H](O)[C@H]1O [OUABAIN]
IC50 [1]: Not Active
Ki [1]: Not Active
IC50 [2]: Not Active
IC50 ([3]; jurkat): Not Active
IC50 [4]: Not Active
IC50 [5]: Not Active
IC50 [6]: Not Active
IC50 [7]: Not Active

NC(=O)N1c2ccccc2CC(=O)c2ccccc21 [OXCARBAZEPINE]
IC50 [1]: Not Active
Ki [1]: Not Active
IC50 [2]: Not Active
IC50 ([3]; jurkat): Not Active
IC50 [4]: Not Active
IC50 [5]: Not Active
IC50 [6]: Not Active
IC50 [7]: Not Active

COc1ccnc(C[S+]([O-])c2nc3ccc(OC(F)F)cc3[nH]2)c1OC (centres undefined) [PANTOPRAZOLE]
IC50 [1]: Not Active
Ki [1]: Not Active
IC50 [2]: Not Active
IC50 ([3]; jurkat): Not Active
IC50 [4]: Not Active
IC50 [5]: Not Active
IC50 [6]: Not Active
IC50 [7]: Not Active

N=C(N)c1ccc(OCCCCCOc2ccc(C(=N)N)cc2)cc1 [PENTAMIDINE]
IC50 [1]: Not Active
Ki [1]: Not Active
IC50 [2]: Not Active
IC50 ([3]; jurkat): Not Active
IC50 [4]: Not Active
IC50 [5]: Not Active
IC50 [6]: Not Active
IC50 [7]: Not Active

NNCCc1ccccc1 [PHENELZINE]
IC50 [1]: Not Active
Ki [1]: Not Active
IC50 [2]: Not Active
IC50 ([3]; jurkat): Not Active
IC50 [4]: Not Active
IC50 [5]: Not Active
IC50 [6]: Not Active
IC50 [7]: Not Active

CCc1ccc(CCOc2ccc(CC3SC(=O)NC3=O)cc2)nc1 (centres undefined) [PIOGLITAZONE]
IC50 [1]: Not Active
Ki [1]: Not Active
IC50 [2]: Not Active
IC50 ([3]; jurkat): Not Active
IC50 [4]: Not Active
IC50 [5]: Not Active
IC50 [6]: Not Active
IC50 [7]: Not Active

CCCNC(C)C(=O)Nc1ccccc1C (centres undefined) [PRILOCAINE]
IC50 [1]: Not Active
Ki [1]: Not Active
IC50 [2]: Not Active
IC50 ([3]; jurkat): Not Active
IC50 [4]: Not Active
IC50 [5]: Not Active
IC50 [6]: Not Active
IC50 [7]: Not Active

CCN(CC)CCNC(=O)c1ccc(N)cc1 [PROCAINAMIDE]
IC50 [1]: Not Active
Ki [1]: Not Active
IC50 [2]: Not Active
IC50 ([3]; jurkat): Not Active
IC50 [4]: Not Active
IC50 [5]: Not Active
IC50 [6]: Not Active
IC50 [7]: Not Active

CCN(CC)CCCC(C)Nc1c2ccc(Cl)cc2nc2ccc(OC)cc12 (centres undefined) [QUINACRINE]
IC50 [1]: Not Active
Ki [1]: Not Active
IC50 [2]: Not Active
IC50 ([3]; jurkat): Not Active
IC50 [4]: Not Active
IC50 [5]: Not Active
IC50 [6]: Not Active
IC50 [7]: Not Active

C[C@]12C=CC(=O)C=C1CC[C@H]1[C@@H]3C[C@@H](O)[C@](O)(C(=O)CO)[C@@]3(C)C[C@H](O)[C@@]12F [TRIAMCINOLONE]
IC50 [1]: Not Active
Ki [1]: Not Active
IC50 [2]: Not Active
IC50 ([3]; jurkat): Not Active
IC50 [4]: Not Active
IC50 [5]: Not Active
IC50 [6]: Not Active
IC50 [7]: Not Active

Source: ChEMBL document CHEMBL1909046, “DrugMatrix in vitro pharmacology data”
